Data set [1] can be described thus: Brain to plasma ratio (B:P) in mice. It counts as in vivo. As to conditions: mouse, brain and plasma, 10 mg/kg po, 2 hours post-dose. The protocol:
Brain tissue following collection was rinsed with cold saline, dried on filter paper, weighed and snap-frozen by placing on dry ice. All samples were stored frozen at approximately −80° C. until analysis. […] Plasma samples were treated with the identical method (except homogenization step) and concentration of compound in either matrix was calculated based on the generated standard curves.

Data set [2] in a line: MTT Cell Proliferation Assay (CellTiter 96 AQueous One Solution, MTS). Format: cell-based. To be noted: human; 72 h treatment; cell line not given; read-out: Cytotoxicity [IC50]. The text has this:
The CellTiter 96® AQueous One Solution cell proliferation assay (Promega) was used on MM1.S, Jurkat and HCT-116 cells to study the cytotoxic and cytostatic properties of the compounds. The assay is based on the cleavage of the tetrazolium salt, MTS, in the presence of an electron-coupling reagent PES (phenazine ethosulfate). The MTS tetrazolium compound is bioreduced by cells into a colored formazan product that is soluble in tissue culture medium. This conversion is presumably accomplished by NADPH or NADH produced by dehydrogenase enzymes in metabolically active cells. Assays are performed by adding a small amount of the CellTiter 96® AQueous One solution reagent directly to culture wells, incubating for 1-4 hours and then recording the absorbance at 490 nm with a 96-well plate reader. […] The cells were seeded at 5×10^3 to 1.5×10^4 cells (depending on cell type) in each well of 96-well plate in 100 μL of fresh culture medium and adherent cells were allowed to attach for overnight. The stock solutions of the compounds were diluted in cell culture medium to obtain eight concentrations of each drug, ranging from 1 nM to 30 μM and DMSO at less than 1% v/v was used as a negative control. After 72 h of treatment 20 μl of CellTiter 96® AQueous reagent was added into each well of the 96-well assay plates and the plate was incubate at 37° C. for 1-4 hours in a humidified, 5% CO2 atmosphere. Then the absorbance of each well was recorded at 490 nm by using a 96-well plate reader. In most cases the assay was performed in triplicates and the results were presented as half maximal inhibitory concentration (IC50) described below. Optical density versus compound concentration was plotted and analyzed using non linear regression equations (Excel Fit) and the IC50 for each compound was calculated.

The nature of data set [3]: Pharmacokinetics (plasma AUC) in mice. As to conditions: mouse, 10 mg/kg po. Format: in vivo. As for the experimental part:
Blood was collected from mice (N=3) to contribute to the total of 10 time points (pre-dose, 5 min, 15 min, 30 min, 1 hour, 2 hours, 4 hours, 8 hours, 12 hours and 24 hours post dose). Mice were bled on a rotating basis, each mouse contributing 3 time points to the blood collection. At the designated time points, animals were anaesthetized under isoflurane, and approximately 110 μL of blood per time point was collected via retro-orbital puncture into pre-cooled K2EDTA (anti-coagulant) tubes. Blood samples were put on wet ice and centrifuged (2000 g, 5 min at 4° C.) to obtain plasma within 30 minutes of sample collection. All samples were stored frozen at approximately −80° C. until analysis. Prior to analysis, samples were mixed with internal standard (dexamethasone) in acetonitrile, vortexed, centrifuged, and supernatant was injected for analysis. Concentration of compounds in plasma was determined using LC-MS-MS instrumentation (API 4000, Triple Quadruple with electrospray ionization; Acuity Ultra Performance Liquid Chromatography column C18, with MeOH and formic acid as organic solvents). PK parameters including but not limited to Tmax, Cmax, t1/2, AUClast, AUCinf were calculated using WinNonlin Professional 6.2 software package, non-compartmental pharmacokinetic model NCA200.

Data set [4] concerns BCCI injury to the medial frontal cortex. Kind of data set: Morris Water Maze after bilateral controlled cortical impact (BCCI) injury in rats. Format: in vivo, Sprague Dawley rats. The protocol: Bilateral controlled cortical impact (BCCI) injury to the medial frontal cortex (MFC) of male Sprague Dawley rats was induced by a cortical contusion device. After CCI any cortical surface hemorrhaging was controlled, and the fascia and scalp were sutured. Sham-operated rats were anesthetized, mounted in the stereotaxic apparatus, and a craniotomy was performed.
Compound 10.2, 0.4, and 0.6 mg/mL was suspended in vehicle (0.6% w/v Pluronic® F-68 and 0.6% w/v PVP K-29/32 in water) and administered p.o at a concentration of 10 mL/kg, 16 h before injury and 2 h after injury, and administrations were continued for 4 days. Control rats received equivalent injections of the vehicle for Compound 1, at the same time points.
The Morris Water Maze (MWM) test is a spatial navigation task that measures learning and memory in rodents using visual cues. Subjects learn over the course of days to find a hidden platform. A MWM test was conducted two weeks after injury. Male Sprague Dawley rats were allowed to swim in the pool until they reached the platform located in the southwest quadrant of a tank, or until 90 seconds had elapsed. Behavior was tracked by a video camera hanging from above the pool and recorded and analyzed using video track software (ANY-maze).

Data set [5] deals with inflammation-related CRM1 cargo proteins: IκB, Nrf2, HMGB1, FoxP3, FOXO1a, RxRα, PPARγ and NFκB (p65 subunit). Kind of data set: Immunofluorescence of nuclear localization of inflammation-related CRM1 cargos in HeLa and THP-1 cells. It counts as cell-based, human. To be noted: 1-10 μM Compound 1 with 20 ng/mL TNFα, 4-24 h. The protocol: HeLa and THP-1 (human acute monocytic leukemia) cells were treated with inflammation inducing factor, TNFα, alone or in combination with 1-10 μM of Compound 1 for 4-24 h, and then were analyzed by immunofluorescence (IF) for the nuclear localization of inflammation-related CRM1 cargo proteins: IκB, Nrf2, HMGB1, FoxP3, FOXO1a, RxRα, PPARγ and NFκB (p65 subunit).
For the detection of IkB, Nrf2, RxRα and PPARγ localization, cells were pre-incubated with 10 μM Compound 1 for 30 minutes, followed by incubation with 20 ng/mL TNFα for 4 hrs in serum free media. For detection of HMGB1, FoxP3 and Foxo1A, cells were pre-incubated with 1 μM of Compound 1 for 2 h, followed by incubation with 20 ng/mL TNFα for 24 hours. […] IκB was detected by the primary rabbit monoclonal (E130) antibody from Abcam (ab32518); Nrf2 was detected by the primary rabbit polyclonal antibody from Santa Cruz (sc722); RxR alpha was detected by the primary rabbit polyclonal antibody from Santa Cruz (sc553); PPAR gamma was detected by the primary rabbit monoclonal […] antibody from Cell Signaling (#2443); Foxo1A was detected by the primary rabbit monoclonal [C29H4] antibody from Cell Signaling (#2880); HMGB1 was detected by the primary rabbit polyclonal antibody from Abcam (ab18256); FoxP3 was detected by the primary rabbit polyclonal antibody from Abeam (ab10563). […]

The term Kp denotes tissue or fluid exposure divided by exposure in the circulation. As usually defined, the IC50 is the midpoint of a concentration-inhibition curve. What is called AUC(0-inf) is total exposure, with the tail of the curve extrapolated. A high value points to more exposure.

Take `CC(C)(C)C(=O)NNC(=O)/C=C\n1cnc(-c2cc(C(F)(F)F)cc(C(F)(F)F)c2)n1` [Compound 1, (Z)-3-(3-(3,5-bis(trifluoromethyl)phenyl)-1H-1,2,4-triazol-1-yl)-N′-pivaloylacrylohydrazide]: in data set [1], the Kp at 2 h amounted to 2.25. Further, the IC50 at 72 h in data set [2] is < 1000 nM. For the same compound, the AUC(0-inf) in data set [3] worked out at 33100 ng·h/mL. Also, the “days after injury with significant effect on latency” value in data set [4] (4 mg/kg p.o.) was 18. Further, the “latency to find the hidden platform (MWM acquisition) compared to vehicle-treated BCCI-injured rats” value in data set [4] (2, 4 and 6 mg/kg p.o.) was “dose dependent decrease in the latency to find the hidden platform”. Further, the “nuclear localization of inflammation-related CRM1 cargo proteins” value in data set [5] was “demonstrate nuclear localization of the above cargos”.
With `O=C(/C=C\n1cnc(-c2cc(C(F)(F)F)cc(C(F)(F)F)c2)n1)NNC(=O)CN1CCOCC1` [Compound 2, (Z)-3-(3-(3,5-bis(trifluoromethyl)phenyl)-1H-1,2,4-triazol-1-yl)-N′-(2-morpholinoacetyl)acrylohydrazide], in data set [1], the Kp at 2 h amounted to 0.16. Besides, the IC50 at 72 h in data set [2] is < 1000 nM. Further, the AUC(0-inf) in data set [3] was found to be 28900 ng·h/mL.

The values are drawn from US9096543B2, “Nuclear transport modulators and uses thereof” (Karyopharm Therapeutics Inc., priority 2012, dated 2015).
